In EPA's ToxValDB 9.5 one finds NOAEL and LOAEL data, which are given here for one compound.

One may read the NOAEL as the highest dose or exposure tested at which no adverse effect was seen. Usually LOAEL stands for the lowest tested level that showed an adverse finding.

For one data set, the system named is Oryctolagus sp. The settings on record: duration: 15 days, oral, F, New Zealand.
In a further data set the test system is Monkey. To be noted: oral, Cynomolgus.
[1] abbreviates: reproduction developmental, Body Weight: 21% decreased mean maternal body weight gain on GDs 7-21 / no effect on food consumption.
[2] abbreviates: chronic, duration: 26 weeks, M/F, Endocrine: Increased TSH and decreased total T3 + Hepatic: 47-55% increased absolute liver weight / 50-60% decreased serum cholesterol / ….

As for `O=S(=O)([O-])C(F)(F)C(F)(F)C(F)(F)C(F)(F)C(F)(F)C(F)(F)C(F)(F)C(F)(F)F.[K+]` [Potassium perfluorooctanesulfonate], the NOAEL is 1 mg/kg-day with Oryctolagus sp. (developmental, Developmental: Decreased fetal body weight / 10% at […] and 24% at 3.75 mg/kg/day / 10/22 does aborted between GD 22 and 28 at 3.75 mg/kg/…); 0.1 mg/kg-day in the data set with Oryctolagus sp. (setting [1]); 0.75 mg/kg-day in the data set with Monkey (chronic, duration: 26 weeks, F); 0.15 mg/kg-day in the data set on Monkey (setting [2]); 0.75 mg/kg-day in the data set on Monkey (chronic, duration: 26 weeks, M/F, Neurological: No histological alterations); 0.15 mg/kg-day in the data set on Monkey (chronic, duration: 26 weeks, M, Body Weight: 13.5% reduction in final body weight). Besides, the NOAEL was determined as 13.3 mg/kg-day in the data set on Monkey (chronic, duration: 315 days, M) and 2 mg/kg-day in the data set with Monkey (short-term, duration: 4 weeks, M/F, Immunotoxicological: No histological alteration + Reproductive: No histological alterations). For the same compound, the LOAEL is 1 mg/kg-day in the data set on Oryctolagus sp. (setting [1]); 0.75 mg/kg-day in the data set on Monkey (setting [2]); 0.75 mg/kg-day in the data set on Monkey (chronic, duration: 26 weeks, M, Body Weight: 13.5% reduction in final body weight + Reproductive: Significant decrease in serum estradiol on days 62 (48%), 91 (42%), and …); 13.3 mg/kg-day in the data set on Monkey (chronic, duration: 315 days, M, Endocrine: Decreased serum T4 / values still within normal range + Hepatic: Decrease in HDL cholesterol / values still within normal range).
